Assay results published in patent publication US10336707B2, “Heterocyclic derivatives modulating activity of certain protein kinases” (EUDENDRON S.R.L., priority 2014, dated 2019).

Columns and labels:
[1] = tested on: Karpas 299 lymphoma cell line positive for the oncogenic fusion protein NPM-ALK; assay: Tritiated thymidine uptake cell proliferation assay, Karpas 299; assay type: cell-based; settings: Homo sapiens, KARPAS-299, read-out: % Inhibition Karpas 299 cells
Protocol: (§1) Method: Tritiated Thymidine Uptake Cell Proliferation Assay
(§2) The following procedure was used with parent untransformed BaF3 cells, BaF3 cells transformed with the oncogenic fusion protein NPM/ALK, NPM/ALK positive SUDHL-1 cells, NPM/ALK positive SUPM2, ALK-negative HL60 cells, NPM/ALK positive KARPAS-299 cells. The parent untransformed BaF3 cells or Alk-negative HL60 cells are used as controls. Cells were seeded in U-bottomed 96-well plates at 10000 cells/well in a volume of 100 μl in supplemented medium. In the case of the parent untransformed BaF3 cells, the medium was supplemented with IL-3. Serial dilutions of inhibitors were added to the appropriate wells and volumes adjusted to 200 μl. Controls were treated with the equivalent volume of vehicle, DMSO, alone. Plates were incubated at 37° C. for 72 h. 3[H]-thymidine (1 μCi/well) was added for the last 16 h of incubation. Cells were harvested on to paper filters and 3[H]-thymidine incorporation was measured using a scintillation counter (1430 MicroBeta, Wallac, Turku, Finland). The 50% inhibitory concentration (IC50) was defined as the concentration of inhibitor, expressed in nanomolar units, that gave a 50% decrease in 3[H]-thymidine uptake compared with controls.
In Table 1 are listed results for selected examples of compounds of the invention, reported as percentage of inhibition of cell proliferation at 200 nM, obtained from cellular assays in Karpas 299 lymphoma cell line positive for the oncogenic fusion protein NPM-ALK.

[2] = target: T1, BaF3 cell line transfected with the oncogenic fusion protein NPM-ALK and expressing the mutation L1196M (Homo sapiens, UniProt Q9UM73, L1196M, cells depend on it); assay: Tritiated thymidine uptake cell proliferation assay, BaF3 NPM-ALK L1196M; assay type: cell-based, murine; settings: for GI50: averaged IC50 values of cell proliferation inhibition, class letters, read-out: IC50 BaF3 NPM-ALK L1196M cells; for % Inhibition BaF3 NPM-ALK L1196M cells: percentage of inhibition of cell proliferation at 200 nM
T1 construct: fused on or other part: P06748 (Nucleophosmin)
Protocol: as §1, §2
In Table 2 are listed results for selected examples of compounds of the invention, reported as percentage of inhibition of cell proliferation at 200 nM, obtained from cellular assays in BaF3 cell line transfected with the oncogenic fusion protein NPM-ALK and expressing the mutation L1196M.
In Table 3 are listed averaged IC50 values of cell proliferation inhibition for selected examples of compounds of the present invention, obtained from cellular assays in BaF3 cell line transfected with the oncogenic fusion protein NPM-ALK and expressing the mutation L1196M. The letter “A” designates an IC50 value between 1 nM and 50 nM, the letter “B” designates an IC50 value between 50 nM and 100 nM, the letter “C” designates an IC50 value between 100 and 500 nM.

T1 sequence (Q9UM73 whole entry L1196M, the tested form may be a part): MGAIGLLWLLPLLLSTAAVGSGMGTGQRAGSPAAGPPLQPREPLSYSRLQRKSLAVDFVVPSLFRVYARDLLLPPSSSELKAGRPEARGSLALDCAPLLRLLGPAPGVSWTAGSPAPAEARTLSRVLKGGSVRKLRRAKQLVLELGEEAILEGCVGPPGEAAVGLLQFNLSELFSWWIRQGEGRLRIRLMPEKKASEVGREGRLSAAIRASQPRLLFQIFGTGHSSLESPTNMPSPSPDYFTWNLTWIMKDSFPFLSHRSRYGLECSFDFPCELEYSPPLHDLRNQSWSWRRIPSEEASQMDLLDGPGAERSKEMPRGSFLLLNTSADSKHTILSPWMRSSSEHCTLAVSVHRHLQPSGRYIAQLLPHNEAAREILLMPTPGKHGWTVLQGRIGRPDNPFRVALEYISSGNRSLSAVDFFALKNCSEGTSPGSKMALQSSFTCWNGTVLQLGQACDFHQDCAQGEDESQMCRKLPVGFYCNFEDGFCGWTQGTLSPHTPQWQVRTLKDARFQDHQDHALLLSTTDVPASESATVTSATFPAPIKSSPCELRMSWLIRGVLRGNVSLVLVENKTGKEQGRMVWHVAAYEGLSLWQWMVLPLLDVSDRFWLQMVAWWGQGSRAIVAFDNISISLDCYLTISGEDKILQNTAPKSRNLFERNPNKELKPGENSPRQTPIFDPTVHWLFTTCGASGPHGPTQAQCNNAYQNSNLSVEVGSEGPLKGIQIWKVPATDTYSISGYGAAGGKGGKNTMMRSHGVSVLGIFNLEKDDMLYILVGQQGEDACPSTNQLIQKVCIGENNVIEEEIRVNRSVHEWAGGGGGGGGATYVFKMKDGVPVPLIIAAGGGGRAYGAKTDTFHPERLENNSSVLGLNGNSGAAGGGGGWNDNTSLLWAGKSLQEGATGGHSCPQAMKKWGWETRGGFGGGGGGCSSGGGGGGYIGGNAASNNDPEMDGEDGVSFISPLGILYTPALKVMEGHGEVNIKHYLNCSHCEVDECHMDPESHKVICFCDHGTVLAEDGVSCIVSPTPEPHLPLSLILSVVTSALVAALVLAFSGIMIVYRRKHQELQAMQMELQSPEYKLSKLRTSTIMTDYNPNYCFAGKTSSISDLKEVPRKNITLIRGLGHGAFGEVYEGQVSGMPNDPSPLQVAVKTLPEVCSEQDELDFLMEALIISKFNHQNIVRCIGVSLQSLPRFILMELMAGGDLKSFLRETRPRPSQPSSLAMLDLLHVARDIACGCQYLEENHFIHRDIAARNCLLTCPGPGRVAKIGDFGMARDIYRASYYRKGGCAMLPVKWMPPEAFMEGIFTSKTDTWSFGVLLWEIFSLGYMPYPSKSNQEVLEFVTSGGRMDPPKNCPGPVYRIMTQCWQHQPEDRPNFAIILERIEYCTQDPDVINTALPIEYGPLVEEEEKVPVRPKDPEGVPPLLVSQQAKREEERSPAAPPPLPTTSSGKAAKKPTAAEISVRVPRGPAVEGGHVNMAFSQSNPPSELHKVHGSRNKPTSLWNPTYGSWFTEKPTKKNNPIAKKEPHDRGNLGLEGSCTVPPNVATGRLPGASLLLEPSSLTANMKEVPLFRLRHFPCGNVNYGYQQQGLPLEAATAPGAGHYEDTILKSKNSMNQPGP

| Compound | inhibition at 0.2 µM [1] [%] | GI50 [2] [nM] | % Inhibition BaF3 NPM-ALK L1196M cells [2] [%] |
| --- | --- | --- | --- |
| CN1CCN(c2ccc(C(=O)Nc3n[nH]c4cc(-c5ccc(O)cc5)c(Cc5cccc(F)c5)cc34)c(NC3CCOCC3)c2)CC1 [Example 38, N-[5-[(3-fluorophenyl)methyl]-6-(4-hydroxyphenyl)-1H-indazol-3-yl]-4-(4-methylpiperazin-1-yl)-2-(tetrahydropyran-4-ylamino)benzamide] | 100 | 1 to 50 | 100 |
| COCCNc1cc(N2CCN(C)CC2)ccc1C(=O)Nc1n[nH]c2cc(-c3ccc(O)c(F)c3)c(Cc3cccc(F)c3)cc12 [Example 42, N-[6-(3-fluoro-4-hydroxy-phenyl)-5-[(3-fluorophenyl)methyl]-1H-indazol-3-yl]-2-(2-methoxyethylamino)-4-(4-methylpiperazin-1-yl)benzamide] | 100 | 50 to 100 | 93 |
